Among the data in US8906852B2 (MethylGene Inc., priority 2010, dated 2014) are IC50 values, retold here.

A word on the IC50: it is the midpoint of a concentration-inhibition curve.

T1 sequence (P35968 806-1356): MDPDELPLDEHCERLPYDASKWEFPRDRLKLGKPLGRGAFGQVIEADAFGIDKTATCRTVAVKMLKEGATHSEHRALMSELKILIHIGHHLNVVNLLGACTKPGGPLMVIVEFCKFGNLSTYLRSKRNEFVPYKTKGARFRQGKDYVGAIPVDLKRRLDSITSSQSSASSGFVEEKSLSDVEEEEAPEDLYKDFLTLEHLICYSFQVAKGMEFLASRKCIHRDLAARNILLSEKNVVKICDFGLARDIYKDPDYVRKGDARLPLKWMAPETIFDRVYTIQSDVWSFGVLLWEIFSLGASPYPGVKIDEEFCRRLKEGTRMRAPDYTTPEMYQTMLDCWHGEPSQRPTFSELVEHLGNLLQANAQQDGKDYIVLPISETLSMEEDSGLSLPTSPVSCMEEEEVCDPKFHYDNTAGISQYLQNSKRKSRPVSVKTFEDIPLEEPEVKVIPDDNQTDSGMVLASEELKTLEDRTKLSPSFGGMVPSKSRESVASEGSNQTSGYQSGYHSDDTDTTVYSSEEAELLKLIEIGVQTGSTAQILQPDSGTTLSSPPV

This experiment addresses T1, VEGFR/KDR (Homo sapiens, UniProt P35968).
T1 construct: made in house; host or cells: Sf9 cells (Spodoptera frugiperda), baculovirus
As to the kind of experiment: VEGFR/KDR kinase inhibition, DELFIA assay. The experiment is classed as biochemical. Conditions: ATP 0.6 uM (2x Km), enzyme 5 nM. An outline of the steps:
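DELFIA time-resolved fluorescence readout using Europium-tagged anti-phosphotyrosine antibody after EDTA stop. Kinase reaction on plate-bound poly(Glu4,Tyr) ran 10-30 min at 30° C with 5 nM enzyme and 0.6 uM ATP (2× Km), following 4 min on-ice pre-incubation with compound; IC50 over a concentration range.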
`CC(=O)O[C@H]1CCN(C(=O)c2cc3nccc(Oc4ccc(NC(=O)NC5CC5)cc4F)c3s2)C1` [Compound 468, (S)-1-(7-(4-(3-cyclopropylureido)-2-fluorophenoxy)thieno[3,2-b]pyridine-2-carbonyl)pyrrolidin-3-yl acetate]: the IC50 is less than 0.05 µM.

`O=C(Nc1ccc(Oc2ccnc3cc(C#CCN4CCOCC4)sc23)c(F)c1)Nc1ccc(F)cc1F` [Compound 119, 1-(2,4-difluorophenyl)-3-(3-fluoro-4-(2-(3-morpholinoprop-1-ynyl)thieno[3,2-b]pyridin-7-yloxy)phenyl)urea] gave an IC50 of 0.1 to 0.25 µM.

Turning to `CC(=O)N[C@H]1CCN(C(=O)c2cc3nccc(Oc4ccc(NC(=O)NC5CC5)cc4F)c3s2)C1` [Compound 452], the IC50 is less than 0.05 µM.

Take `O=C(Nc1ccc(Oc2ccnc3cc(-c4ccc(C(=O)N5CCNCC5)cn4)sc23)c(F)c1)NC1CC1` [Compound 550]: the IC50 is less than 0.05 µM.

On to `O=C(CCO)NC1CCN(Cc2ccc(-c3cc4nccc(Oc5ccc(NC(=O)NC6CC6)cc5F)c4s3)nc2)CC1` [Compound 349], for which the IC50 was less than 0.05 µM.

`O=C(O)CC[C@@H](O)C(=O)N1CCN(Cc2ccc(-c3cc4nccc(Oc5ccc(NC(=O)NC6CC6)cc5F)c4s3)nc2)CC1` [Compound 546]: the IC50 is less than 0.05 µM.

The compound `O=C(Nc1ccc(Oc2ccnc3cc(C(=O)N4CCC[C@@H](O)C4)sc23)c(F)c1)NC1CC1` [Compound 463, (R)-1-cyclopropyl-3-(3-fluoro-4-(2-(3-hydroxypiperidine-1-carbonyl)thieno-[3,2-b]pyridine-7-yloxy)phenyl)urea] yielded an IC50 of 0.1 to 0.25 µM.

`COCCNCCn1cc(-c2cc3nccc(Oc4ccc(NC(=O)NC5CC5)cc4F)c3s2)cn1` [Compound 247, 1-cyclopropyl-3-(3-fluoro-4-(2-(1-(2-(2-methoxyethylamino)ethyl)-1H-pyrazol-4-yl)thieno[3,2-b]pyridin-7-yloxy)phenyl)urea] showed an IC50 of less than 0.05 µM.

On to `O=C(Cn1cc(-c2cc3nccc(Oc4ccc(NC(=O)NC5CC5)cc4F)c3s2)nn1)NCc1ccccn1` [Compound 383], for which the IC50 was less than 0.05 µM.

With `CCNC(=O)N(CCOC)CCc1ccc(-c2cc3nccc(Oc4ccc(NC(=O)NC5CC5)cc4F)c3s2)nc1` [Compound 38, N-[3-(2-(6-(7-(4-(3-cyclopropylureido)-2-fluorophenoxy)-thieno[3,2-b]-pyridin-2-yl)pyridin-3-yl)ethyl)]-N-(1-ethyl)-N-[3-(2-methoxyethyl)]urea], the IC50 is less than 0.05 µM.

In the case of `CN(CCO)C(=O)C1CCCN(Cc2ccc(-c3cc4nccc(Oc5ccc(NC(=O)NC6CC6)cc5F)c4s3)nc2)C1` (centres unmarked) [Compound 494, 1-((6-(7-(4-(3-cyclopropylureido)-2-fluorophenoxy)thieno[3,2-b]pyridin-2-yl)pyridin-3-yl)methyl)-N-(2-hydroxyethyl)-N-methylpiperidine-3-carboxamide], the 50% inhibitory concentration (IC50) was less than 0.05 µM.

`COCCNCCn1cnc(-c2cc3nccc(Oc4ccc(NC(=O)NC5CC5)cc4F)c3s2)c1` [compound 253] returned a concentration for half-maximal inhibition (IC50) of less than 0.05 µM.

`CC(CC(=O)O)N1CCN(Cc2ccc(-c3cc4nccc(Oc5ccc(NC(=O)NC6CC6)cc5F)c4s3)nc2)CC1` (centres unmarked) [Compound 516] yielded an IC50 of less than 0.05 µM.

`Cn1c(C(=O)NCCN2CCOCC2)cnc1-c1cc2nccc(Oc3ccc(NC(=O)NC4CC4)cc3F)c2s1` [Compound 217, 2-(7-(4-(3-cyclopropylureido)-2-fluorophenoxy)thieno[3,2-b]pyridin-2-yl)-1-methyl-N-(2-morpholinoethyl)-1H-imidazole-5-carboxamide] registered an IC50 of less than 0.05 µM.

`C[C@@H]1CN(Cc2ccc(-c3cc4nccc(Oc5ccc(NC(=O)NC6CC6)cc5F)c4s3)nc2)C[C@H](C)N1CCO` [Compound 583] displayed an IC50 of less than 0.05 µM.

Compound `O=C(CCc1cccnc1)NC1CCN(Cc2ccc(-c3cc4nccc(Oc5ccc(NC(=O)NC6CC6)cc5F)c4s3)nc2)CC1` [Compound 348] had an IC50 of less than 0.05 µM.

Compound `CC(C)(C)C(=O)O[C@@H]1CCCN(C(=O)c2cc3nccc(Oc4ccc(NC(=O)NC5CC5)cc4F)c3s2)C1` [Compound 451] showed an IC50 not below 0.25 µM.

Take `COCCN(Cc1ccc(-c2cc3nccc(Oc4ccc(NC(=S)NC5CC5)cc4F)c3s2)nc1)C(C)=O` [Compound 504, N-((6-(7-(4-(3-cyclopropylthioureido)-2-fluorophenoxy)thieno[3,2-b]pyridin-2-yl)pyridin-3-yl)methyl)-N-(2-methoxyethyl)acetamide]: the half-maximal inhibitory concentration (IC50) was less than 0.05 µM.

The compound `O=C(O)COC1CCN(Cc2ccc(-c3cc4nccc(Oc5ccc(NC(=O)NC6CC6)cc5F)c4s3)nc2)CC1` [Compound 329, 2-(1-((6-(7-(4-(3-cyclopropylureido)-2-fluorophenoxy)thieno[3,2-b]pyridin-2-yl)pyridin-3-yl)mcthyI)piperidin-4-yloxy)acetic acid] came in with an IC50 of less than 0.05 µM.

Turning to `CN1CCN(Cc2ccc(-c3cc4nccc(Oc5ccc(NC(=O)NC6CC6)cc5F)c4s3)nc2)C1=O` [Compound 141, 1-cyclopropyl-3-(3-fluoro-4-(2-(5-((3-methyl-2-oxoimidazolidin-1-yl)methyl)pyridin-2-yl)thieno[3,2-b]pyridin-7-yloxy)phenyl)urea], the IC50 was less than 0.05 µM.

`O=C(Nc1ccc(Oc2ccnc3cc(-c4ccc(CN5CCN(CCN6CCOCC6)CC5)cn4)sc23)c(F)c1)NC1CC1` [Compound 54-A, 1-cyclopropyl-3-(3-fluoro-4-(2-(5-((4-(2-morpholinoethyl)piperazin-1-yl)methyl)pyridin-2-yl)thieno[3,2-b]pyridin-7-yloxy)phenyl)urea] yielded an IC50 of less than 0.05 µM.

Turning to `CC(C)NC(=O)Nc1ccc(Oc2ccnc3cc(-c4ccc(CN5CCCC5=O)cc4)sc23)c(F)c1` [Compound 205, 1-(3-fluoro-4-(2-(4-((2-oxopyrrolidin-1-yl)methyl)phenyl)thieno[3,2-b]pyridin-7-yloxy)phenyl)-3-isopropylurea], the IC50 lay within 0.05 to 0.1 µM.

The compound `O=C(O)CC1CCN(Cc2ccc(-c3cc4nccc(Oc5ccc(NC(=O)NC6CC6)cc5F)c4s3)nc2)CC1` [Compound 63, 2-(l-((6-(7-(4-(3-cyclopropylureido)-2-fluorophenoxy)thieno[3,2-b]pyridin-2-yl)pyridin-3-yl)methyl)piperidin-4-yl)acetic acid] displayed an IC50 of less than 0.05 µM.

With `CCOC(=O)Cc1csc(NC(=O)Cn2cc(-c3cc4nccc(Oc5ccc(NC(=O)NC6CC6)cc5F)c4s3)nn2)n1` [Compound 375], the IC50 was less than 0.05 µM.

The compound `CN(C)CC(=O)N1CCN(Cc2ccc(-c3cc4nccc(Oc5ccc(NC(=O)NC6CC6)cc5F)c4s3)nc2)CC1` [Compound 538] gave an IC50 of less than 0.05 µM.

In turn, `O=C(Nc1ccc(Oc2ccnc3cc(-c4ccc(CN5CC[C@@H](O)C5)cn4)sc23)c(F)c1)NC1CC1` [Compound 53, (R)-1-cyclopropyl-3-(3-fluoro-4-(2-(5-((3-hydroxypyrrolidin-1-yl)methyl)pyridin-2-yl)thieno[3,2-b]-pyridin-7-yloxy)phenyl)urea] had an IC50 of less than 0.05 µM.

`CCNC(=O)N1CCN(Cc2ccc(-c3cc4nccc(Oc5ccc(NC(=O)NC6CC6)cc5F)c4s3)nc2)C[C@@H]1C` [Compound 556]: the IC50 was less than 0.05 µM.

In turn, `CC(C)N1CCN(Cc2ccc(-c3cc4nccc(Oc5ccc(NC(=O)NC6CC6)cc5F)c4s3)nc2)CC1` [Compound 54-E, 1-cyclopropyl-3-(3-fluoro-4-(2-(5-((4-isopropylpiperazin-1-yl)methyl)pyridin-2-yl)thieno[3,2-b]pyridin-7-yloxy)phenyl)urea] showed a concentration for half-maximal inhibition (IC50) of less than 0.05 µM.

Regarding `O=C(O)CC(N1CCN(Cc2ccc(-c3cc4nccc(Oc5ccc(NC(=O)NC6CC6)cc5F)c4s3)nc2)CC1)C(F)(F)F` (centres unmarked) [Compound 511, 3-(4-((6-(7-(4-(3-cyclopropylureido)-2-fluorophenoxy)thieno[3,2-b]pyridin-2-yl)pyridin-yl)methyl)piperazin-1-yl)-4,4,4-trifluorobutanoic acid], the IC50 is less than 0.05 µM.

`CCOC(=O)CC(N1CCN(Cc2ccc(-c3cc4nccc(Oc5ccc(NC(=O)NC6CC6)cc5F)c4s3)nc2)CC1)C(F)(F)F` (centres unmarked) [Compound 509, ethyl 3-(4-((6-(7-(4-(3-cyclopropylureido)-2-fluorophenoxy)thieno[3,2-b]pyridin-2-yl)pyridin-3-yl)methyl)piperazin-1-yl)-4,4,4-trifluorobutanoate]: the half-inhibitory concentration (IC50) is less than 0.05 µM.

With `O=C(Nc1ccc(Oc2ccnc3cc(-c4ccc(CN5CC[C@H](O)C5)cn4)sc23)c(F)c1)NC1CC1` [Compound 52, (S)-1-cyclopropyl-3-(3-fluoro-4-(2-(5-((3-hydroxypyrrolidin-1-yl)methyl)pyridin-2-yl)thieno[3,2-b]-pyridin-7-yloxy)phenyl)urea], the IC50 is less than 0.05 µM.

In turn, `COCCOCCOCCOCCNC(=O)c1ccc(-c2cc3nccc(Oc4ccc(NC(=O)NC5CC5)cc4F)c3s2)nc1` [Compound 229, 6-(7-(4-(3-cyclopropylureido)-2-fluorophenoxy)thieno[3,2-b]pyridin-2-yl)-N-(2,5,8,11-tetraoxatridecan-13-yl)nicotinamide] yielded an IC50 of less than 0.05 µM.

Turning to `COCCN(Cc1ccc(-c2cc3nccc(Oc4ccc(NC(=O)NC5CC5)cc4F)c3s2)nc1)CC(F)(F)F` [Compound 8, 1-cyclopropyl-3-(3-fluoro-4-(2-(5-(((2-methoxyethyl)(2,2,2-trifluoroethyl)amino)-methyl)pyridin-2-yl)thieno [3,2-b]pyridin-7-yloxy)phenyl)urea], the IC50 lay within 0.05 to 0.1 µM.

`CCNC(=O)N(CCOC)Cc1ccc(-c2cc3nccc(Oc4ccc(NC(=O)NC5CC5)nc4)c3s2)nc1` [Compound 37, N-[3((6-(7-(6-(3-cyclopropylureido)-pyridin-3-yloxy)thieno[3,2-b]-pyridin-2-yl)pyridin-3-yl)methyl)]-N-(1-ethyl)-N-[3-(2-methoxyethyl)]urea]: the IC50 was in the range of 0.1 to 0.25 µM.

Regarding `COCCN(Cc1ccc(-c2cc3nccc(Oc4ccc(NC(=O)NC5CC5)cc4F)c3s2)nc1)C(=O)NC(C)C` [Compound 190, 1-((6-(7-(4-cyclopropylaminocarbonylamino-2-fluorophenoxy)-thieno[3,2-b]pyridin-2-yl)pyridin-3-yl)methyl)-3-isopropyl-1-(2-methoxyethyl)urea], the IC50 was less than 0.05 µM.
